According to PubChem BioAssay (NCI):
Several values for one entry are separate records, joined by “and”; a condition that tells them apart may be missing. Equal values may be shown once.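 Interpolation was linear, between the two tested concentrations surrounding the appropriate level; five concentrations were tested over 48 hours in 96-well plates. GI50 marks 50% less growth. TGI is the concentration that stops growth completely.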

Legend:
Experiment in all cases: NCI-60 cell line screen, 48 h
786-0 renal = test system: 786-0 renal
ACHN renal = test system: ACHN renal
CAKI-1 renal = test system: CAKI-1 renal
IGROV1 ovarian = test system: IGROV1 ovarian
KM12 colon = test system: KM12 colon
NCI-H23 lung = test system: NCI-H23 lung
PC-3 prostate = test system: PC-3 prostate
RPMI-8226 leukemia = test system: RPMI-8226 leukemia
UACC-257 melanoma = test system: UACC-257 melanoma
UACC-62 melanoma = test system: UACC-62 melanoma

SMILES	TGI (786-0 renal)	TGI (ACHN renal)	TGI (CAKI-1 renal)	TGI (IGROV1 ovarian)	TGI (KM12 colon)	TGI (NCI-H23 lung)	TGI (PC-3 prostate)	TGI (RPMI-8226 leukemia)	TGI (UACC-257 melanoma)	TGI (UACC-62 melanoma)	GI50 (786-0 renal)	GI50 (ACHN renal)	GI50 (CAKI-1 renal)	GI50 (IGROV1 ovarian)	GI50 (KM12 colon)	GI50 (NCI-H23 lung)	GI50 (PC-3 prostate)	GI50 (RPMI-8226 leukemia)	GI50 (UACC-257 melanoma)	GI50 (UACC-62 melanoma)
COc1cccc(C2SC(N)=Nc3c2c(C)nn3C(=O)c2ccccc2O)c1 (stereo not given)	> 10 µM	> 10 µM	> 10 µM	> 10 µM	> 10 µM	> 10 µM	> 10 µM	> 10 µM	> 10 µM	> 10 µM										
COc1ccc(-c2cn[nH]c2-c2cc(OC)c(OC)c(OC)c2)cc1	7.76 µM	21.3 µM	18.2 µM	19.9 µM	12 µM	30.2 µM	59.8 µM	5.16 µM	> 49.6 µM	19.5 µM	0.0656 µM	0.0615 µM	0.0187 µM	0.0363 µM	0.0252 µM	0.044 µM	0.0309 µM	0.0429 µM	0.558 µM	0.0339 µM
Nc1ccccc1SC(CC(=O)c1ccccc1)c1cccc([N+](=O)[O-])c1 (stereo not given)	33.3 µM	27.9 µM	30.4 µM	28.1 µM	19.3 µM	32.6 µM	25.5 µM	19 µM	31.1 µM	26.9 µM	18.9 µM	14.5 µM	16.4 µM	13.1 µM	6.24 µM	17.6 µM	12.5 µM	3.89 µM	17.1 µM	13.8 µM
O=C1NC(=NC(CO)Cc2ccccc2)S/C1=C\c1ccc2ncccc2c1 (stereo not given)	> 25 µM	> 25 µM	> 25 µM	> 25 µM	> 25 µM	> 25 µM	> 25 µM	> 25 µM and 12.1 µM	> 25 µM and 19 µM	> 25 µM	> 25 µM and 6.96 µM	11.2 µM and 3.55 µM	9.35 µM and 3.64 µM	12.8 µM and 2.08 µM	12.4 µM and 2.25 µM	17.7 µM and 2.23 µM	> 25 µM and 3.9 µM	> 18.4 µM and 2.33 µM	> 25 µM and 5.79 µM	14.6 µM and 5.27 µM
CC(C)[C@@H]1C=C2CC[C@H]3[C@](C)(CN)CCC[C@]3(C)[C@H]2CC1	4.1 µM	18.5 µM	4.66 µM	4.09 µM	3.23 µM	4.09 µM	19.6 µM	11.7 µM	9.88 µM	30.5 µM	2.02 µM	5.67 µM	1.85 µM	1.93 µM	1.76 µM	1.94 µM	5.59 µM	2.57 µM	2.9 µM	16 µM
CCN1C(=O)N(c2ccccc2)C2NC(=S)N(/N=C/C=C/c3ccccc3OC)C21 (stereo not given)	> 68.8 µM	> 60.8 µM	> 60.9 µM	10.8 µM	> 36.1 µM	> 61.6 µM	> 89.3 µM	14.2 µM	> 88.5 µM	> 100 µM	0.182 µM	0.134 µM	0.0704 µM	0.136 µM	0.101 µM	0.174 µM	0.111 µM	0.126 µM	3.44 µM	0.0698 µM
CN(C)c1cc(NN=C(c2ccc(O)cc2)c2ccc(O)cc2)c([N+](=O)[O-])cc1[N+](=O)[O-]	25.1 µM	13.3 µM	20.2 µM	24.8 µM	13.8 µM	23.1 µM	32.2 µM	27.2 µM	27.3 µM	14.4 µM	10.9 µM	2.36 µM	6.76 µM	7.16 µM	3.73 µM	6.46 µM	4.85 µM	3.34 µM	13.4 µM	3.41 µM
CCCCCCCCCCCCC(O)c1ccc(C#CCCCCCCCCCO)o1 (stereo not given)	34.4 µM	33.5 µM	33.1 µM	51.8 µM	39.9 µM	48.8 µM	59.6 µM	71.3 µM	51 µM	40.3 µM	18.9 µM	18.8 µM	18.6 µM	25.9 µM	20.5 µM	26.4 µM	25.2 µM	27.2 µM	24.1 µM	19.7 µM
O=C(O)c1ccc2c(c1C(=O)O)C(=O)OC2(c1ccc(O)cc1)c1ccc(O)cc1	> 100 µM	> 100 µM	> 100 µM	> 100 µM	> 100 µM	> 100 µM	> 100 µM	> 100 µM	> 100 µM	> 100 µM										
CCOC(=S)SCC(=O)O	> 100 µM	> 100 µM	> 100 µM	> 100 µM	> 100 µM	> 100 µM	> 100 µM	> 100 µM	> 100 µM	> 100 µM										
CCN(C(=O)N1CCN(c2cc3c(cc2F)c(=O)c(C(=O)O)cn3C2CC2)CC1)c1nc(-c2ccc(Cl)cc2)cs1	15.4 µM	10.1 µM	11.4 µM	1.79 µM	> 100 µM	8.45 µM	> 26 µM	3.17 µM	7.3 µM	3.55 µM	2.41 µM	1.24 µM	2.17 µM	0.538 µM	1.29 µM	1.56 µM	0.858 µM	0.838 µM	2.53 µM	1.13 µM
COC[C@H]1Cn2cc(-c3nc(Nc4ccnn4C)ncc3C)nc2C(=O)N1Cc1ccc(F)c(F)c1	> 100 µM	> 100 µM	> 100 µM	> 100 µM	> 100 µM	> 100 µM	> 100 µM	> 100 µM	> 100 µM	> 100 µM	88 µM	12.6 µM	0.795 µM	0.315 µM	0.586 µM	0.181 µM	> 100 µM	4.47 µM	0.0352 µM	0.0228 µM
O=C(CCCSc1nc(-c2ccccc2)cc(-c2ccccc2)n1)NO	4.34 µM	1.5 µM	6.46 µM	9.13 µM	12.9 µM	6.11 µM	13.6 µM	9.38 µM	6.71 µM	3.21 µM	0.585 µM	0.358 µM	0.516 µM	1.5 µM	2.64 µM	2 µM	1.72 µM	0.808 µM	1.77 µM	1.32 µM
Nc1ccc(C2=NNC(=O)Cc3cc4c(cc32)OCCO4)cc1Cl	> 50 µM	> 50 µM	> 50 µM	> 50 µM	> 50 µM	> 50 µM	> 50 µM	> 50 µM	> 50 µM	> 50 µM	6.51 µM	18.8 µM	1.99 µM	4.54 µM	1.74 µM	5.28 µM	7.94 µM	7.56 µM	13.3 µM	4.42 µM
CC(=O)CC(OC(C)=O)C1=CCC2C(CC1C)OC(=O)C2C (stereo not given)	> 100 µM	> 100 µM	> 100 µM	> 100 µM	> 100 µM	> 100 µM	> 100 µM	> 100 µM	> 100 µM	> 100 µM										
Nc1cc(NN=C(c2ccc(O)cc2)c2ccc(O)cc2)c([N+](=O)[O-])cc1[N+](=O)[O-]	3.43 µM	5.55 µM	5.24 µM	5.38 µM	2.85 µM	6.07 µM	12.4 µM	6.46 µM	17.1 µM	3.01 µM	1.83 µM	1.86 µM	1.88 µM	2.28 µM	1.52 µM	2.31 µM	3.31 µM	2.15 µM	4.3 µM	1.66 µM
Nc1n[nH]c2cc(F)c([C@@H]3Nc4ccc5[nH]ncc5c4[C@H]4C5CCC(C5)[C@@H]34)cc12 (stereo not given in full)	12 µM	26.1 µM	7.43 µM	15.6 µM	4.01 µM	7.77 µM	18.7 µM	1.82 µM	44.8 µM	10 µM	0.25 µM	0.231 µM	0.132 µM	0.218 µM	0.18 µM	0.193 µM	0.238 µM	0.173 µM	3.98 µM	0.218 µM
COCCOc1ccc(-c2nc3ccc(-c4nc5ccc(N6CCN(C)CC6)cc5[nH]4)cc3[nH]2)cc1	3.81 µM	> 100 µM	> 100 µM	4.81 µM	14.3 µM	5.09 µM	24.5 µM	35.5 µM	5.92 µM	2.02 µM	1.64 µM	10.7 µM	2.25 µM	1.71 µM	2.58 µM	1.21 µM	2.19 µM	4.11 µM	1.71 µM	0.365 µM
COc1cc(/C(C#N)=C/c2nc3c(N4CCOCC4)nc(Cl)nc3n2C)cc(OC)c1OC	3.12 µM	4.99 µM	2.87 µM	16.6 µM	4.36 µM	> 35.4 µM	7.62 µM	1.88 µM	> 55.2 µM	15.5 µM	< 0.01 µM	< 0.01 µM	< 0.01 µM	< 0.01 µM	< 0.01 µM	< 0.01 µM	< 0.01 µM	< 0.01 µM	2.45 µM	< 0.01 µM
